What all share (format): in vivo
Assay [1] concerns IPOHE. The assay is described as follows: Post-emergence biological efficacy. To be noted: Ipomoea hederacea, 312 h, evaluated after 13 days, read-out: damage to plant (100=total damage to plant; 0=no damage to plant). Summed up: (§1)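 Plants grown 14 days in glasshouse, then sprayed post-emergence with compound formulated in IF50 and diluted in 0.2% Genapol XO80 to the desired dose. Damage scored after 13 days on a 0–100 scale (100 = total damage).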

In assay [2] the test system is LOLPE. The assay is described as follows: Post-emergence biological efficacy. Conditions: Lolium perenne, 312 h, evaluated after 13 days, read-out: damage to plant (100=total damage to plant; 0=no damage to plant). Summed up:
as §1

The test system of assay [3] is SETFA. The assay can be described thus: Post-emergence biological efficacy. Conditions: Setaria faberi, 312 h, evaluated after 13 days, read-out: damage to plant (100=total damage to plant; 0=no damage to plant). Summed up:
as §1

Assay [4] relates to ECHCG. The assay is described as follows: Post-emergence biological efficacy. To be noted: Echinochloa crus-galli, 312 h, evaluated after 13 days, read-out: damage to plant (100=total damage to plant; 0=no damage to plant). An outline of the steps: as §1
In assay [5] the test system is ELEIN. The assay can be described thus: Post-emergence biological efficacy. Conditions: 312 h, evaluated after 13 days, read-out: damage to plant (100=total damage to plant; 0=no damage to plant). An outline of the steps:
as §1

Assay [6] relates to EPHHL. The assay can be described thus: Post-emergence biological efficacy. Conditions: Euphorbia heterophylla, 312 h, evaluated after 13 days, read-out: damage to plant (100=total damage to plant; 0=no damage to plant). An outline of the steps: as §1
For assay [7], the system named is DIGSA. The assay is described as follows: Post-emergence biological efficacy. Conditions: Digitaria sanguinalis, 312 h, evaluated after 13 days, read-out: damage to plant (100=total damage to plant; 0=no damage to plant). An outline of the steps:
as §1

The test system of assay [8] is CHEAL. The assay can be described thus: Post-emergence biological efficacy. Conditions: Chenopodium album, 312 h, evaluated after 13 days, read-out: damage to plant (100=total damage to plant; 0=no damage to plant). An outline of the steps:
as §1

Assay [9] relates to AMAPA. The assay is described as follows: Post-emergence biological efficacy. To be noted: Amaranthus palmeri, 312 h, evaluated after 13 days, read-out: damage to plant (100=total damage to plant; 0=no damage to plant). Summed up: as §1
Assay [10] relates to IPOHE. The assay is described as follows: Pre-emergence biological efficacy. Conditions: Ipomoea hederacea, 312 h, evaluated after 13 days, read-out: damage to plant (100=total damage to plant; 0=no damage to plant). Summed up:
(§2)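 Sow in pots → 1 d glasshouse, 24/19 °C, 16 h light → spray compound (IF50/acetone formulation, 0.2% Genapol XO80 diluent) → grow 24/18 °C, 15 h light, 50% RH, water 2×/day → score damage 0–100 at 13 d.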

For assay [11], the system named is LOLPE. The assay can be described thus: Pre-emergence biological efficacy. To be noted: Lolium perenne, 312 h, evaluated after 13 days, read-out: damage to plant (100=total damage to plant; 0=no damage to plant). Summed up:
as §2

The test system of assay [12] is SETFA. The assay is described as follows: Pre-emergence biological efficacy. To be noted: Setaria faberi, 312 h, evaluated after 13 days, read-out: damage to plant (100=total damage to plant; 0=no damage to plant). Summed up: as §2
For assay [13], the system named is ECHCG. The assay is described as follows: Pre-emergence biological efficacy. Conditions: Echinochloa crus-galli, 312 h, evaluated after 13 days, read-out: damage to plant (100=total damage to plant; 0=no damage to plant). Summed up: as §2
Assay [14] concerns EPHHL. The assay can be described thus: Pre-emergence biological efficacy. Conditions: Euphorbia heterophylla, 312 h, evaluated after 13 days, read-out: damage to plant (100=total damage to plant; 0=no damage to plant). Summed up:
as §2

The test system of assay [15] is AMAPA. The assay is described as follows: Pre-emergence biological efficacy. To be noted: Amaranthus palmeri, 312 h, evaluated after 13 days, read-out: damage to plant (100=total damage to plant; 0=no damage to plant). An outline of the steps:
as §2

For the molecule `CCOC(=O)C1(C)CC(c2cc(-c3cnc4ccccc4c3)c(F)cc2Cl)=NO1` (stereo not drawn) [Compound 1-439, Ethyl 3-[2-chloro-4-fluoro-5-(3-quinolyl)-phenyl]-5-methyl-4H-isoxazole-5-carboxylate], the pest or weed control at 250 g/ha in assay [1] stood at 40%; in assay [2], 20%; in assay [3] it was 30%; in [4], 30%; in [5], 50%; in [6], 40%. Besides, the pest or weed control at 250 g/ha in [7] was 30%; in [8], 50%; in assay [9], 70%; in assay [10], 10%; in assay [11] it was 20%; in assay [12], 20%. The pest or weed control at 250 g/ha in assay [13] came out at 30%; in assay [14], 10%; in assay [15], 50%.
Consider `CCOC(=O)C1(C)CC(c2cc(-c3ncc(C(C)(F)F)cc3Cl)c(F)cc2Cl)=NO1` (stereo not drawn) [Compound 1-595, ethyl 3-[2-chloro-5-[3-chloro-5-(1,1-difluoroethyl)-2-pyridyl]-4-fluoro-phenyl]-5-methyl-4H-isoxazole-5-carboxylate], for which the pest or weed control at 250 g/ha in assay [1], in assay [2], in [3], in assay [4], in [5] and in assay [6] was 100% in each case. Also, the pest or weed control at 250 g/ha was 100% in [7]; 100% in assay [8]; 100% in assay [9]; 80% in assay [10]; 90% in assay [11]; 100% in assay [12]. In addition, the pest or weed control at 250 g/ha in assay [13], in [14] and in [15] was 100% throughout.
Regarding `CCOC(=O)C1(C)CC(c2cc(-c3cccc(C(F)(F)F)n3)c(F)cc2Cl)=NO1` (stereo not drawn) [Compound 1-43, Ethyl 3-[2-chloro-4-fluoro-5-[6-(trifluoromethyl)-2-pyridyl]phenyl]-5-methyl-4H-isoxazole-5-carboxylate], the pest or weed control at 250 g/ha in assay [1] amounted to 60%; in [2], 0%; in assay [3] it was 90%; in [4], 20%; in [5] it was 70%; in assay [6] it was 20%. The pest or weed control at 250 g/ha in assay [7] amounted to 30%; in [8], 80%; in [9] it was 80%; in assay [10] it was 0%; in assay [11] it was 0%; in assay [12], 0%. Also, the figures for the pest or weed control at 250 g/ha in assay [13], in assay [14] and in [15] were 0%, 0% and 20%, respectively.
`CCOC(=O)C1(C)CC(c2cc(-c3ccnc(C(F)(F)F)c3)c(F)cc2Cl)=NO1` (stereo not drawn) [Compound 1-499, Ethyl 3-[2-chloro-4-fluoro-5-[2-(trifluoromethyl)-4-pyridyl]-phenyl]-5-methyl-4H-isoxazole-5-carboxylate]: the pest or weed control at 250 g/ha in assay [1] amounted to 70%; in [2] it was 0%; in assay [3], 80%; in assay [4], 50%; in assay [5], 60%; in assay [6], 50%. In addition, the pest or weed control at 250 g/ha in [7] came to 60%; in assay [8] it was 80%; in assay [9], 80%; in assay [10], 0%; in assay [11] it was 20%; in assay [12], 0%. Also, the figures for the pest or weed control at 250 g/ha in assay [13], in assay [14] and in assay [15] were 0%, 0% and 20%, respectively.

Source of the values: patent US20240124432A1, “HERBICIDAL COMPOUNDS” (SYNGENTA CROP PROTECTION AG, priority 2020, published 2024).
